Results as given in patent publication US12679822B2, “Alkenyl pyrimidine compound, preparation method therefor, and application thereof” (Hongyun Biotech Co., Ltd., priority 2020, dated 2026).

Key:
Format in all cases: cell-based
[1] = molecular target: BaF3 cell lines stably transfected with kinase EGFR Del (Homo sapiens, UniProt P00533, cells depend on it, form not given); experiment: Growth inhibition of BaF3 cell line stably transfected with kinase EGFR Del (MTS); settings: 48 h, read-out: growth inhibitory activity IC50, Del
BaF3 cell lines stably transfected with kinase EGFR Del, sequence (P00533 with tags, fused parts or gaps DEL746-750): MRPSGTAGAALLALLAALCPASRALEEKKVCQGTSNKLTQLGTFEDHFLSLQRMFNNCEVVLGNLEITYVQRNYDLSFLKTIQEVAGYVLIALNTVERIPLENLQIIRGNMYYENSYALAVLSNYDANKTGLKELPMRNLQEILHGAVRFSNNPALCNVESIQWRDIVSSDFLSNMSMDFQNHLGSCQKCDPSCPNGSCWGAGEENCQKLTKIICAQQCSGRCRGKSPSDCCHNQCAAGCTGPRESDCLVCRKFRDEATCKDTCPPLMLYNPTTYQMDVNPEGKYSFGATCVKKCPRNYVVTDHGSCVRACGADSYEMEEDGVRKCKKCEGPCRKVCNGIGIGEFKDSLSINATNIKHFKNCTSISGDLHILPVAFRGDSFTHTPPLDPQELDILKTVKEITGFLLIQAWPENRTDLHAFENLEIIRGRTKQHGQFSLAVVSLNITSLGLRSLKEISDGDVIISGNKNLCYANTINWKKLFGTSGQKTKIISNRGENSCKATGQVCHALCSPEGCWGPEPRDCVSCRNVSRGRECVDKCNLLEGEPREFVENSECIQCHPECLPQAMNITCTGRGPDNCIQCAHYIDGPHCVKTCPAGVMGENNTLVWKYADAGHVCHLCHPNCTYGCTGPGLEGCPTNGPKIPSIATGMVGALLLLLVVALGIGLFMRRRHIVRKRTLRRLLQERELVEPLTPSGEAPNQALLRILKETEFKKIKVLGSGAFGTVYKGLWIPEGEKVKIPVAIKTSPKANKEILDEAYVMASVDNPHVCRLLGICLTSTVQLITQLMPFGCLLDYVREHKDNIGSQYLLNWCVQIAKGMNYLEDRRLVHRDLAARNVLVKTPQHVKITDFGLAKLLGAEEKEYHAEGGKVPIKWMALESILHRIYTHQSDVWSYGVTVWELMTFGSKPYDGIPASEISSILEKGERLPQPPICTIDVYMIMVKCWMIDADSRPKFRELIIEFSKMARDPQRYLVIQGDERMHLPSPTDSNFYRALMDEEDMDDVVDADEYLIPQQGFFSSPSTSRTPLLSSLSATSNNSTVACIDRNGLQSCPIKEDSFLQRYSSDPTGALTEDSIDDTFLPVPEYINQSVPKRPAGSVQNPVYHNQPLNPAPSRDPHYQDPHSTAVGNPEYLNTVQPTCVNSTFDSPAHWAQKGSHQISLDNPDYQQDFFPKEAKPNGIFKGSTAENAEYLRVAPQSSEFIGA
Description: (§1) Biological Activity Assay: Growth Inhibitory Activity of Compounds on Cell Lines Stably Transfected with Kinase
(§2) The activity of compounds against various mutants of kinase EGFR was evaluated by their effect of inhibiting growth of BaF3 cell lines stably transfected with kinase. The specific test method was given as follows:
(§3) 1) Culture medium: DMEM (Dulbecco's modified eagle medium) or RPMI 1640 (containing 10% fetal bovine serum, 100 μg/mL ampicillin, 100 μg/mL streptomycin).
(§4) 2) Reagent: MTS reaction solution (containing 2 mg/mL of MTS [3-(4,5-di methylthiazol-2-yl)-5-(3-carboxymethoxyphenyl)-2-(4-sulfophenyl)-2H-tetrazolium, inner Salt]; 100 μg/mL of PES (phenazine […])).
(§5) 3) Compound test: cells were incubated into a 96-well culture plate, the volume of cytosol was 90 μL, and then 10 μL of the compound at each gradient concentration was added. That is, the highest concentration was 10 μM, which was diluted stepwise by ⅓, and 8 concentration points were set in total; 0.1% DMSO (dimethyl sulfoxide) was contained in the system. The cell plate with uniformly mixed compound was cultured in a cell culture incubator (37° C.; 5% […]) for 48 h, then 20 μL of MTS reaction solution was added, uniformly mixed and incubated in the cell culture incubator (37° C.; 5% CO2) for 1-4 h; OD values at 490 nm were measured by a microplate reader (VARIOSKAN FLASH, Thermo). Two parallels were set in each group of experiments, with 0.1% (a final concentration) DMSO as a negative control, and a culture medium without cells and compounds as a blank control. The cell growth inhibition rate was calculated by the following formula: Cell growth inhibition rate %=1−(ODexperimental group−ODblank group)/(ODnegative group−ODblank group)×100%.
(§6) 4) IC50 calculation: The semi-inhibitory concentration of the compounds acting on cells was calculated using GradPad Prism 5 software according to the measured cell growth inhibition rate.

[2] = molecular target: BaF3 cell lines stably transfected with kinase EGFR L858R (Homo sapiens, UniProt P00533, L858R, cells depend on it); experiment: Growth inhibition of BaF3 cell line stably transfected with kinase EGFR L858R (MTS); settings: 48 h, read-out: growth inhibitory activity IC50, L858R
BaF3 cell lines stably transfected with kinase EGFR L858R, sequence (P00533 whole entry L858R): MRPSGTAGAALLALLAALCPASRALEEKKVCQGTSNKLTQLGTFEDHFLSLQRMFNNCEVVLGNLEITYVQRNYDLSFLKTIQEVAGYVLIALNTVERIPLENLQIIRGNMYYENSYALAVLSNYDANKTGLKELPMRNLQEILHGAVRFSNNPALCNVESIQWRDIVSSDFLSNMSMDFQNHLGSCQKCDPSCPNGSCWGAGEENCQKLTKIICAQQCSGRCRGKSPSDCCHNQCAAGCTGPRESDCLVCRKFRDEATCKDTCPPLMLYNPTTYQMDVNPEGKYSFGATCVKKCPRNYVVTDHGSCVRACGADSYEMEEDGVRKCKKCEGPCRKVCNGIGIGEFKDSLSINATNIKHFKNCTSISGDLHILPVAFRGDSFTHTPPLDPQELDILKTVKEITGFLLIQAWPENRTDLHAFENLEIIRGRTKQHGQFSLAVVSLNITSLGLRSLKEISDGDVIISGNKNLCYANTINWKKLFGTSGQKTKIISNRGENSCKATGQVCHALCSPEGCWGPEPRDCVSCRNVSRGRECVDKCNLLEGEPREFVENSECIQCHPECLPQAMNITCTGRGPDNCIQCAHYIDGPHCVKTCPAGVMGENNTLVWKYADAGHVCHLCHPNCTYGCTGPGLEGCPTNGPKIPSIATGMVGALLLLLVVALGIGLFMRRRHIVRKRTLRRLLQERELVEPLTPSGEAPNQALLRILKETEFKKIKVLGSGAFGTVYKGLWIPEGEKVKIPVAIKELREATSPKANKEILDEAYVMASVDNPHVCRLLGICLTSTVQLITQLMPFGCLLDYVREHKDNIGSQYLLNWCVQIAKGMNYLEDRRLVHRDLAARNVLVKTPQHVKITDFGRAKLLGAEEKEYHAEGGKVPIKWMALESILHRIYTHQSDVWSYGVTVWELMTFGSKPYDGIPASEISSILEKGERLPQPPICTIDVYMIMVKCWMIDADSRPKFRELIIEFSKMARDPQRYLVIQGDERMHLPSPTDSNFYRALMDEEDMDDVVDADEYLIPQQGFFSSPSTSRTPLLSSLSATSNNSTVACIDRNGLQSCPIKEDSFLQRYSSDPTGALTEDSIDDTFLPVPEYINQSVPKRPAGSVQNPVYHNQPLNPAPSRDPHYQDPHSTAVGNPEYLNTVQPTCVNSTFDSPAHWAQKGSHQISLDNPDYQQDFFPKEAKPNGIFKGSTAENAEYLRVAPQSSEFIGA
Description: as §1, §2, §3, §4, §5, §6

[3] = molecular target: BaF3 cell lines stably transfected with kinase EGFR Del/T790M/C797S (Homo sapiens, UniProt P00533, T790M/C797S, cells depend on it, form not given); experiment: Growth inhibition of BaF3 cell line stably transfected with kinase EGFR Del/T790M/C797S (MTS); settings: 48 h, read-out: growth inhibitory activity IC50, Del/T790M/C797S
BaF3 cell lines stably transfected with kinase EGFR Del/T790M/C797S, sequence (P00533 with tags, fused parts or gaps DEL746-750/T790M/C797S, form open): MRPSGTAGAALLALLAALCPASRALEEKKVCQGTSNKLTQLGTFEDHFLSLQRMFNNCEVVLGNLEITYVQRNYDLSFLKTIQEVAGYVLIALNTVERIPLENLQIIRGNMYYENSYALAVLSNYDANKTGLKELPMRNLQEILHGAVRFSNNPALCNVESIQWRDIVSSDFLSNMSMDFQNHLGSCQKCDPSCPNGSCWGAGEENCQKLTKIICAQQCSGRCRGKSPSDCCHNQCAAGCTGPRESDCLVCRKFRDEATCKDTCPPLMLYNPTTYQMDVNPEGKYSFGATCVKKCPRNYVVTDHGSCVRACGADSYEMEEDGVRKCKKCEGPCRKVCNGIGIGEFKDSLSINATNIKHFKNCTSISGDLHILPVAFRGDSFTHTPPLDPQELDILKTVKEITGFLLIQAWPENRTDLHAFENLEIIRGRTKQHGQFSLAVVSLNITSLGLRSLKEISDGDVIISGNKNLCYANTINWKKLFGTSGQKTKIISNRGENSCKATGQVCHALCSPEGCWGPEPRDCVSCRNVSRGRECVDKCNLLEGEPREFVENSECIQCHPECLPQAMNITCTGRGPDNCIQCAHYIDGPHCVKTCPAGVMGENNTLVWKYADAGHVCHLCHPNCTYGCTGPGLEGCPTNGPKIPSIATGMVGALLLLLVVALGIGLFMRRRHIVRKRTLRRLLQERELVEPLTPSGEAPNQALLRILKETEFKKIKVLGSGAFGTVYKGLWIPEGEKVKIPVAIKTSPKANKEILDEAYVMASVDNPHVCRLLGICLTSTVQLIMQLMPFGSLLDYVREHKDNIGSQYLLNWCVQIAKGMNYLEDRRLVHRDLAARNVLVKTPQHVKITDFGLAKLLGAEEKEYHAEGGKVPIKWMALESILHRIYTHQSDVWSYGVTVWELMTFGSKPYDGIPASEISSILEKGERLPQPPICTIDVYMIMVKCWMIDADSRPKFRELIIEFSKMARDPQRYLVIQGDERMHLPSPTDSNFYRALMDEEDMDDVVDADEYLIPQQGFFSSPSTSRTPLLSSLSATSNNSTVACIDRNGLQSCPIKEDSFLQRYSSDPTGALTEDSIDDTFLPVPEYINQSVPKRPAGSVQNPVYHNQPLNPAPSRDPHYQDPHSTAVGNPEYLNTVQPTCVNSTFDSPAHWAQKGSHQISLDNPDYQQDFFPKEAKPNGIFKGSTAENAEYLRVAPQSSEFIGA
Description: as §1, §2, §3, §4, §5, §6

[4] = molecular target: BaF3 cell lines stably transfected with kinase EGFR L858R/T790M/C797S (Homo sapiens, UniProt P00533, T790M/C797S/L858R, cells depend on it); experiment: Growth inhibition of BaF3 cell line stably transfected with kinase EGFR L858R/T790M/C797S (MTS); settings: 48 h, read-out: growth inhibitory activity IC50, L858R/T790M/C797S
Description: as §1, §2, §3, §4, §5, §6

[5] = molecular target: BaF3 cell lines stably transfected with kinase EGFR L858R/T790M (Homo sapiens, UniProt P00533, T790M/L858R, cells depend on it); experiment: Growth inhibition of BaF3 cell line stably transfected with kinase EGFR L858R/T790M (MTS); settings: 48 h, read-out: growth inhibitory activity IC50, L858R/T790M
Description: as §1, §2, §3, §4, §5, §6

[6] = molecular target: BaF3 cell lines stably transfected with kinase EGFR Del/T790M (Homo sapiens, UniProt P00533, T790M, cells depend on it, form not given); experiment: Growth inhibition of BaF3 cell line stably transfected with kinase EGFR Del/T790M (MTS); settings: 48 h, read-out: growth inhibitory activity IC50, Del/T790M
BaF3 cell lines stably transfected with kinase EGFR Del/T790M, sequence (P00533 with tags, fused parts or gaps DEL746-750/T790M, form open): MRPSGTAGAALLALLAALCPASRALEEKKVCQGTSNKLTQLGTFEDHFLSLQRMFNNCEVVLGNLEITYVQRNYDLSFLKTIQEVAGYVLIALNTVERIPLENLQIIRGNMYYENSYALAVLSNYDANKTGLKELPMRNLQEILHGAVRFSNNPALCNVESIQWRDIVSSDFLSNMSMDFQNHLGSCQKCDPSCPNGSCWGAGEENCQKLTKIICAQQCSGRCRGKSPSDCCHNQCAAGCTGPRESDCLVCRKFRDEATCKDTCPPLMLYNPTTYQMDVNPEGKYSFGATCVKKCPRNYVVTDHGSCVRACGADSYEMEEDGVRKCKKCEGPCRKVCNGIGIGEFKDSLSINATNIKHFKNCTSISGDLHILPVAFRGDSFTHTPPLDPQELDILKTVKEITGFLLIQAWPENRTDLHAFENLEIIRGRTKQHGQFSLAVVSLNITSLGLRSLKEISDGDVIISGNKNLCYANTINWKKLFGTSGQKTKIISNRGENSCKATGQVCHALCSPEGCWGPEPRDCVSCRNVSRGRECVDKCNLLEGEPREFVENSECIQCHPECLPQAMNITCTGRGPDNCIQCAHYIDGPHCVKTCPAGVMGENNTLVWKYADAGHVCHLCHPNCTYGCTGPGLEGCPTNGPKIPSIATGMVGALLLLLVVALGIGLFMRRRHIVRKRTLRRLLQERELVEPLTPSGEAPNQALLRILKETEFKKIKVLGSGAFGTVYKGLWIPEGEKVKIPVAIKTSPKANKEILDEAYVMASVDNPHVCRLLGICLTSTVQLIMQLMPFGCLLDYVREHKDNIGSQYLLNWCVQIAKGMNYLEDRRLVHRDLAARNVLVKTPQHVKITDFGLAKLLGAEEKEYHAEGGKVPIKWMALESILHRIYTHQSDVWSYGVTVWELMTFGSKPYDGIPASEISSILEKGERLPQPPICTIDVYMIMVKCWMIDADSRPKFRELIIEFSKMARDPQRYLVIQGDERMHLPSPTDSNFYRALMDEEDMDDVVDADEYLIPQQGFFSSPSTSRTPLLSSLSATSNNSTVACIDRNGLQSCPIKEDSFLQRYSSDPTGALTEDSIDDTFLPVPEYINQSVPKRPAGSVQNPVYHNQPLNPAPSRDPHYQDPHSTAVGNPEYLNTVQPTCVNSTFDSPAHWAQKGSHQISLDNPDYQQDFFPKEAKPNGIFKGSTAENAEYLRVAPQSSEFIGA
Description: as §1, §2, §3, §4, §5, §6

SMILES | GI50 [1] | GI50 [2] | GI50 [3] | GI50 [4] | GI50 [5] | GI50 [6]
C=Cc1cnc(Nc2cc(F)c(N3CCC(N4CCN(C)CC4)CC3)c(F)c2)nc1Nc1ccc2nccnc2c1NS(C)(=O)=O [II-46] | 50 to 500 nM | 50 to 500 nM | 50 to 500 nM | 50 to 500 nM | ≤ 50 nM | 50 to 500 nM
C=C(C)c1cnc(Nc2cc(C3CC3)c(N3CCC(N4CCN(C)CC4)CC3)cc2OC)nc1Nc1ccc2nccnc2c1N(C)S(C)(=O)=O [II-23] | ≤ 50 nM | ≤ 50 nM | 50 to 500 nM | 50 to 500 nM | ≤ 50 nM | ≤ 50 nM
C=Cc1cnc(Nc2cc(CC)c(N3CCC(N4CCN(C)CC4)CC3)nc2OC)nc1Nc1ccc2nccnc2c1NS(C)(=O)=O [II-33] | ≤ 50 nM | ≤ 50 nM | 50 to 500 nM | 50 to 500 nM | 50 to 500 nM | 50 to 500 nM
C=C(C)c1cnc(Nc2cc(C)c(N3CCC(N4CCN(C)CC4)CC3)nc2OC)nc1Nc1ccc2nccnc2c1P(C)(C)=O [Compound I-20] | 500 to 2500 nM | 50 to 500 nM | 500 to 2500 nM | 500 to 2500 nM | 50 to 500 nM | 50 to 500 nM
C=Cc1cnc(Nc2cc(CC)c(N3CCN(C)CC3)cc2OC)nc1Nc1ccc2nccnc2c1NS(C)(=O)=O [II-41] | ≤ 50 nM | ≤ 50 nM | ≤ 50 nM | ≤ 50 nM | 50 to 500 nM | ≤ 50 nM
C=Cc1cnc(Nc2cc(C)c(N3CCC(N4CCN(C)CC4)CC3)cc2OC)nc1Nc1ccc2nccnc2c1S(=O)(=O)C(C)C [III-19] | 50 to 500 nM | 50 to 500 nM | 500 to 2500 nM | 50 to 500 nM | 50 to 500 nM | 50 to 500 nM
CCc1cc(Nc2ncc(C=C(C)C)c(Nc3ccc4nccnc4c3P(C)(C)=O)n2)c(OC)cc1N1CCC(N2CCN(C)CC2)CC1 [Compound I-10] | ≤ 50 nM | ≤ 50 nM | 50 to 500 nM | 50 to 500 nM | 50 to 500 nM | 500 to 2500 nM
C=Cc1cnc(Nc2cc(C3CC3)c(N3CCC(N4CCN(C)CC4)CC3)cc2OC)nc1Nc1ccc2nccnc2c1S(=O)(=O)C(C)C [III-21] | 50 to 500 nM | 50 to 500 nM | 50 to 500 nM | 50 to 500 nM | 50 to 500 nM | 50 to 500 nM
C=Cc1cnc(Nc2cc(CC)c(N3CCC(N4CCN(C)CC4)CC3)nc2OC)nc1Nc1ccc2nccnc2c1S(=O)(=O)NC [IV-4] | 500 to 2500 nM | 500 to 2500 nM | 500 to 2500 nM | 50 to 500 nM | 50 to 500 nM | 50 to 500 nM
C=Cc1cnc(Nc2ccc(N3CCC(N4CCN(C)CC4)CC3)cc2OC)nc1Nc1ccc2nccnc2c1NS(=O)(=O)C(C)C [II-42] | 500 to 2500 nM | 500 to 2500 nM | 500 to 2500 nM | 50 to 500 nM | 500 to 2500 nM | 500 to 2500 nM
C=Cc1cnc(Nc2cc(CC)c(N3CCC(N(C)C)C3)cc2OC)nc1Nc1ccc2nccnc2c1NS(C)(=O)=O (stereo not drawn) [II-40] | ≤ 50 nM | ≤ 50 nM | ≤ 50 nM | ≤ 50 nM | 50 to 500 nM | ≤ 50 nM
C=Cc1cnc(Nc2cc(C3CC3)c(N3CCC(N4CCN(C)CC4)CC3)cc2OC)nc1Nc1ccc2nccnc2c1S(C)(=O)=O [III-12] | 50 to 500 nM | 500 to 2500 nM | 500 to 2500 nM | 50 to 500 nM | 50 to 500 nM | 50 to 500 nM
C=Cc1cnc(Nc2cc(F)c(N3CCC(N4CCN(C)CC4)CC3)c(F)c2)nc1Nc1ccc2nccnc2c1S(C)(=O)=O [III-16] | 500 to 2500 nM | 500 to 2500 nM | 500 to 2500 nM | 500 to 2500 nM | 500 to 2500 nM | 50 to 500 nM
C=Cc1cnc(Nc2cc(CC)c(N3CCC(N4CCN(C)CC4)CC3)nc2OC)nc1Nc1ccc2nccnc2c1N(C)S(C)(=O)=O [II-5] | 50 to 500 nM | 50 to 500 nM | 50 to 500 nM | 50 to 500 nM | ≤ 50 nM | ≤ 50 nM
